Results from publication PMC4076210, “Discovery of Novel AKT Inhibitors with Enhanced Anti-Tumor Effects in Combination with the MEK Inhibitor” (PLoS ONE, 2014).
Like-named read-outs stand apart in the source and are kept apart here.

Columns and labels:
DDR2(h) = target: T1, DDR2(h) (Homo sapiens, UniProt Q16832); assay: Kinase panel; format: biochemical
T1 construct: purchased Millipore KinaseProfiler
T1 sequence (Q16832 22-855): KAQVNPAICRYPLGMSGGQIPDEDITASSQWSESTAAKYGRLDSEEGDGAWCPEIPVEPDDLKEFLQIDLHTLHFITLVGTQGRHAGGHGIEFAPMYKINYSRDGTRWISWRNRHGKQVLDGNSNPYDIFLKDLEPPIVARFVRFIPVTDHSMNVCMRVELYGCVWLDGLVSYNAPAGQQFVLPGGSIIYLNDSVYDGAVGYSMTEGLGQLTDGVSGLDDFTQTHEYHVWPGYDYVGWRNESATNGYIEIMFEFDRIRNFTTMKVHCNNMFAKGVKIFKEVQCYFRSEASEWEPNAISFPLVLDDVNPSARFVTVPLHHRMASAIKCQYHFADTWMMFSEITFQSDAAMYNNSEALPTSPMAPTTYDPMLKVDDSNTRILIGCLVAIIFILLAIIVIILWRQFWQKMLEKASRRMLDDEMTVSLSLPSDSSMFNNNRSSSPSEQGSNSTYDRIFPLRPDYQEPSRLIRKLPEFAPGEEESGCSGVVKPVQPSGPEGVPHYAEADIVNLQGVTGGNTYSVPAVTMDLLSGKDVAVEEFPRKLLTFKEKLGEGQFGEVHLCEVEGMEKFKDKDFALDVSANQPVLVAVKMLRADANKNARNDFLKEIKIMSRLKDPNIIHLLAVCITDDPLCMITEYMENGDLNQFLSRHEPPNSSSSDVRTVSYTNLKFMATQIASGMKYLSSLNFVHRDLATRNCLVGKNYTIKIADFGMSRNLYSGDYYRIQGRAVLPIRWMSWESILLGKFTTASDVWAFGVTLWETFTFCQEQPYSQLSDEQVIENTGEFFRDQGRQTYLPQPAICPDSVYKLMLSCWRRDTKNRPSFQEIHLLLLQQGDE

[1] = Blood glucose after single oral dose; format: in vivo, mouse
Procedure: Blood glucose levels were determined from tail vein puncture in mice using a handheld glucometer. Plasma Insulin levels were using the Rat Ultrasensitive Insulin ELISA kit (Crystal Chem Inc).

Flt1(h) = target: T2, Flt1(h) (Homo sapiens, UniProt P17948); assay: Kinase panel; format: biochemical
T2 construct: purchased Millipore KinaseProfiler

Ron(h) = target: T3, Ron(h) (Homo sapiens, UniProt Q04912); assay: Kinase panel; format: biochemical
T3 construct: purchased Millipore KinaseProfiler

CaMKIIγ(h) = target: T4, CaMKIIγ(h) (Homo sapiens, UniProt Q13555); assay: Kinase panel; format: biochemical
T4 construct: purchased Millipore KinaseProfiler

eEF-2K(h) = target: T5, eEF-2K(h) (Homo sapiens, UniProt O00418); assay: Kinase panel; format: biochemical
T5 construct: purchased Millipore KinaseProfiler

DAPK2(h) = target: T6, DAPK2(h) (Homo sapiens, UniProt Q9UIK4); assay: Kinase panel; format: biochemical
T6 construct: purchased Millipore KinaseProfiler

CK1(y) = assay: Kinase panel; format: biochemical, yeast
SGK3(h) = target: T7, SGK3(h) (Homo sapiens, UniProt Q96BR1); assay: Kinase panel
T7 sequence (Q96BR1 1-496): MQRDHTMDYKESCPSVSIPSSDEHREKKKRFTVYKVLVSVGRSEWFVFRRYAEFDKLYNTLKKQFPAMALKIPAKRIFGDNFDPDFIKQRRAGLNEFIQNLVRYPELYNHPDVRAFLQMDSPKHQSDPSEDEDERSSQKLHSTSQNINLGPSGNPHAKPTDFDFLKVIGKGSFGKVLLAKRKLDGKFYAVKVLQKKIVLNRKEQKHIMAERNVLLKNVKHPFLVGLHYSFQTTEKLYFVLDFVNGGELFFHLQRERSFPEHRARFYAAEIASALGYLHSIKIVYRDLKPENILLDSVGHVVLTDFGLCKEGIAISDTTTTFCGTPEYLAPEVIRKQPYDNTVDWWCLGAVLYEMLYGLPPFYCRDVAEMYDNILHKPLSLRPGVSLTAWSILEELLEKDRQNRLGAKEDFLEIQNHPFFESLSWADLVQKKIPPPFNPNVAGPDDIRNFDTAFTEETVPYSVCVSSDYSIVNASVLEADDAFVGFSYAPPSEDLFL

CaMKI(h) = target: T8, CaMKI(h) (Homo sapiens, UniProt Q14012); assay: Kinase panel; format: biochemical
T8 construct: purchased Millipore KinaseProfiler

IRAK4(h) = target: T9, IRAK4(h) (Homo sapiens, UniProt Q9NWZ3); assay: Kinase panel; format: biochemical
T9 construct: purchased Millipore KinaseProfiler
T9 sequence (Q9NWZ3 1-460): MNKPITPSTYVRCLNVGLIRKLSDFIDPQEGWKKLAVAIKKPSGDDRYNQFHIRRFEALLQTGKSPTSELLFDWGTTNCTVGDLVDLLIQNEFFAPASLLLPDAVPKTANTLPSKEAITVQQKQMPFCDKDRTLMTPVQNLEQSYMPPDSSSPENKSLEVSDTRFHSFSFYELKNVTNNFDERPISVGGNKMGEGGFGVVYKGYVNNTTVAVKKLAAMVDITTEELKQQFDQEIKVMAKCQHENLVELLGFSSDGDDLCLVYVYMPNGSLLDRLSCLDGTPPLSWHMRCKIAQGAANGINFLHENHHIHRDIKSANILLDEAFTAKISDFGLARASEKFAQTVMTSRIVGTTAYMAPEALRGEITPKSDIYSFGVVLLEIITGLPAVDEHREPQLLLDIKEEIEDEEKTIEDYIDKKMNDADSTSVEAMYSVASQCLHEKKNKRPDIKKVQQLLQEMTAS

cKit(V654A)(h) = target: T10, cKit(V654A)(h) (Homo sapiens, UniProt P10721, V654A); assay: Kinase panel; format: biochemical
T10 construct: purchased Millipore KinaseProfiler

cSRC(h) = target: T11, cSRC(h) (Homo sapiens, UniProt P12931); assay: Kinase panel; format: biochemical
T11 construct: purchased Millipore KinaseProfiler

TrkB(h) = target: T12, TrkB(h) (Homo sapiens, UniProt Q16620); assay: Kinase panel; format: biochemical
T12 construct: purchased Millipore KinaseProfiler

CDK1/cyclinB(h) = target: T13, CDK1/cyclinB(h) (Homo sapiens, UniProt P06493); assay: Kinase panel; format: biochemical
T13 construct: purchased Millipore KinaseProfiler

T2 sequence (P17948 27-1338): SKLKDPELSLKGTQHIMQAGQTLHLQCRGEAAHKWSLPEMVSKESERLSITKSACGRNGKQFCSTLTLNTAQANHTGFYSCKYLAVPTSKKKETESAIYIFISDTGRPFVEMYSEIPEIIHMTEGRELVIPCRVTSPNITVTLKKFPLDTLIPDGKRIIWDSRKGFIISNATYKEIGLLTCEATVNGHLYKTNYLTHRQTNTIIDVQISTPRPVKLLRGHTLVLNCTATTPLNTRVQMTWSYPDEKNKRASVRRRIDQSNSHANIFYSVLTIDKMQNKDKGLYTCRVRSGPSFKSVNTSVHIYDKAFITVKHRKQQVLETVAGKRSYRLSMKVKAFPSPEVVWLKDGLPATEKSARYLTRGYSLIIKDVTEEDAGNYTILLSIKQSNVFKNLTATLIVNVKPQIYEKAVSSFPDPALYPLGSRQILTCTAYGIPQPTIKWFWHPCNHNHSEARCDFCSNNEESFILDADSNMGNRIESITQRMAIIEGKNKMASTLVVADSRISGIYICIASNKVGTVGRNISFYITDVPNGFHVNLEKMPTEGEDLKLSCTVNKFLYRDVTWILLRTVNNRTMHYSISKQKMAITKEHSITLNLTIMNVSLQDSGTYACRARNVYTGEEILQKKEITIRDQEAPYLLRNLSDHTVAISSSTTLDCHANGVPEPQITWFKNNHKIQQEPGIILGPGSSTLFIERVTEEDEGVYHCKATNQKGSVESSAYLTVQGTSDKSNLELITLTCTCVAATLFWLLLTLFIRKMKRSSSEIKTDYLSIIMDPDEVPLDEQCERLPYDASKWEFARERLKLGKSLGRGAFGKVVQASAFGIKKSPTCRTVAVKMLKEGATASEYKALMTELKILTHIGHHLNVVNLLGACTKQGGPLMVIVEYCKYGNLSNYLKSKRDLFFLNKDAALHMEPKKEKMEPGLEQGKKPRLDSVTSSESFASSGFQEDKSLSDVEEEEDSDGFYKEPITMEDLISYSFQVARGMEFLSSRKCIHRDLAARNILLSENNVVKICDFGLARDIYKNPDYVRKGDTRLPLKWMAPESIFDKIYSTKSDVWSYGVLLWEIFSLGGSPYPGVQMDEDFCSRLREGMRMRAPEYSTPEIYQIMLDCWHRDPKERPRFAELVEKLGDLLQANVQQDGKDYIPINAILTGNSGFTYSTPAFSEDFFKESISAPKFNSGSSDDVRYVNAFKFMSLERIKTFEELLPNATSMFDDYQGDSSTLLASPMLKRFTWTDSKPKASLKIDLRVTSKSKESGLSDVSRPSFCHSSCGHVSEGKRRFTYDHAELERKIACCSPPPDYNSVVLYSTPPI
T6 sequence (Q9UIK4 whole entry): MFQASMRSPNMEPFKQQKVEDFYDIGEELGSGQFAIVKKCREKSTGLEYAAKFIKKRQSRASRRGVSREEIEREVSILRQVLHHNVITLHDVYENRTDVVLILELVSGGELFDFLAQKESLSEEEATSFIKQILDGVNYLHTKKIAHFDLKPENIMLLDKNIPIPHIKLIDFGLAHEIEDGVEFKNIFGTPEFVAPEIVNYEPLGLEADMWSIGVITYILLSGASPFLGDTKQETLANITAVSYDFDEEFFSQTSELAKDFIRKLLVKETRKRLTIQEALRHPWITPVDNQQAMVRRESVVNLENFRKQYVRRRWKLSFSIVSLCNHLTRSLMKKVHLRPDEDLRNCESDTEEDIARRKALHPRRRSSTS
T3 sequence (Q04912 25-1400): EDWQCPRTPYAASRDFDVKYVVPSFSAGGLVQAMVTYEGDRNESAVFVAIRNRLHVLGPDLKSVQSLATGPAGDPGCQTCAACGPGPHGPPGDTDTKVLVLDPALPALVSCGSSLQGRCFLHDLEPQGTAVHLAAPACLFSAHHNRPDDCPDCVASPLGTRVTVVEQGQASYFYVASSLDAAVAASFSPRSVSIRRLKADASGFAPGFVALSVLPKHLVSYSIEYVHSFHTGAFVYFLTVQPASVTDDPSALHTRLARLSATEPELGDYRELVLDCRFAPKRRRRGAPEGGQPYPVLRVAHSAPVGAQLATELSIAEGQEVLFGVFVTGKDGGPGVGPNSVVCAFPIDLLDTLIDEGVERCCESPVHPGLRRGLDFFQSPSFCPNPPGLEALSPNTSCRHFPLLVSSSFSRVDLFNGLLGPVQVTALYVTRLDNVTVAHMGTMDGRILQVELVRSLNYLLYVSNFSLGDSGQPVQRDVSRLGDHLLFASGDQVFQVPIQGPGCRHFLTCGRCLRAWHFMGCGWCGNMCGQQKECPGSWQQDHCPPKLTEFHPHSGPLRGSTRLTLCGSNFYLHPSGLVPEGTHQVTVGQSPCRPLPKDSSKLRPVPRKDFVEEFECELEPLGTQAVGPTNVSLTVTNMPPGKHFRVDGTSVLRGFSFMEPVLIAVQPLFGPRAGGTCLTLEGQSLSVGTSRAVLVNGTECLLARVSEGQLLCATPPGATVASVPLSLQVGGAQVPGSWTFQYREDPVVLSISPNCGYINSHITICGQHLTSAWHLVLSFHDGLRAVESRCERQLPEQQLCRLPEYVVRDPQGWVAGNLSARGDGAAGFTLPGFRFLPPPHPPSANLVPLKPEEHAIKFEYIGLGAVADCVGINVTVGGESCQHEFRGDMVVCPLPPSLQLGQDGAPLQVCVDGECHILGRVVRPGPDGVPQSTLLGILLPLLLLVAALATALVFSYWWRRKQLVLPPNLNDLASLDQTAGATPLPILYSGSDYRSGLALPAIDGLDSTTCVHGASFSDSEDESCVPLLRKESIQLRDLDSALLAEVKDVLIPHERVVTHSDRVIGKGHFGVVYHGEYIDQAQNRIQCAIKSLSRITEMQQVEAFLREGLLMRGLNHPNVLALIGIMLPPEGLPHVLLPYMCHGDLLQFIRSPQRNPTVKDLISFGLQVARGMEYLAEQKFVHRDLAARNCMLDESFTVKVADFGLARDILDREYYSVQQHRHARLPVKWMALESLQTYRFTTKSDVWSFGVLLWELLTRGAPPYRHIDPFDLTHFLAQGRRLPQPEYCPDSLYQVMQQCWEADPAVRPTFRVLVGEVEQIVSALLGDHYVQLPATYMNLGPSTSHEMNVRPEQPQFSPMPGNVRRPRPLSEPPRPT
T12 sequence (Q16620 32-822): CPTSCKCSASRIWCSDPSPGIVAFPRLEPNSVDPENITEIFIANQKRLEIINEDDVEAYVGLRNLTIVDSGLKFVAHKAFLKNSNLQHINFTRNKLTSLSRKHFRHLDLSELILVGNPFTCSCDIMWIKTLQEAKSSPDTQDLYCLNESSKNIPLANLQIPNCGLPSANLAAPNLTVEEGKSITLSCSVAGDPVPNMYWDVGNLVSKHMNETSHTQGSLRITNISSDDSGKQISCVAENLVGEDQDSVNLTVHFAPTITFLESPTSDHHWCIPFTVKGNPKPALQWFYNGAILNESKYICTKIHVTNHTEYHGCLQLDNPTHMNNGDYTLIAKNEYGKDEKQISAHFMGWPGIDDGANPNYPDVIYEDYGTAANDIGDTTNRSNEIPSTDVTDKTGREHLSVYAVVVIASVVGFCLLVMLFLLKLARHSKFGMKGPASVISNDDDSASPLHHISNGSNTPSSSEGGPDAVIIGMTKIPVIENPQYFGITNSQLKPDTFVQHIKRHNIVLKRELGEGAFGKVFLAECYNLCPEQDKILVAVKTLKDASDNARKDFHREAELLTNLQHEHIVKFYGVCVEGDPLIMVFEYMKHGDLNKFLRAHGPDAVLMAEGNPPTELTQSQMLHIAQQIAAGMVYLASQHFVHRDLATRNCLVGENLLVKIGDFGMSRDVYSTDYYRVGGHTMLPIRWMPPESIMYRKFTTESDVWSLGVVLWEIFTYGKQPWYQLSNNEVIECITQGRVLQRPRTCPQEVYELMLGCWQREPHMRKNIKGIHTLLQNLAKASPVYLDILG
T10 sequence (P10721 26-976 V654A): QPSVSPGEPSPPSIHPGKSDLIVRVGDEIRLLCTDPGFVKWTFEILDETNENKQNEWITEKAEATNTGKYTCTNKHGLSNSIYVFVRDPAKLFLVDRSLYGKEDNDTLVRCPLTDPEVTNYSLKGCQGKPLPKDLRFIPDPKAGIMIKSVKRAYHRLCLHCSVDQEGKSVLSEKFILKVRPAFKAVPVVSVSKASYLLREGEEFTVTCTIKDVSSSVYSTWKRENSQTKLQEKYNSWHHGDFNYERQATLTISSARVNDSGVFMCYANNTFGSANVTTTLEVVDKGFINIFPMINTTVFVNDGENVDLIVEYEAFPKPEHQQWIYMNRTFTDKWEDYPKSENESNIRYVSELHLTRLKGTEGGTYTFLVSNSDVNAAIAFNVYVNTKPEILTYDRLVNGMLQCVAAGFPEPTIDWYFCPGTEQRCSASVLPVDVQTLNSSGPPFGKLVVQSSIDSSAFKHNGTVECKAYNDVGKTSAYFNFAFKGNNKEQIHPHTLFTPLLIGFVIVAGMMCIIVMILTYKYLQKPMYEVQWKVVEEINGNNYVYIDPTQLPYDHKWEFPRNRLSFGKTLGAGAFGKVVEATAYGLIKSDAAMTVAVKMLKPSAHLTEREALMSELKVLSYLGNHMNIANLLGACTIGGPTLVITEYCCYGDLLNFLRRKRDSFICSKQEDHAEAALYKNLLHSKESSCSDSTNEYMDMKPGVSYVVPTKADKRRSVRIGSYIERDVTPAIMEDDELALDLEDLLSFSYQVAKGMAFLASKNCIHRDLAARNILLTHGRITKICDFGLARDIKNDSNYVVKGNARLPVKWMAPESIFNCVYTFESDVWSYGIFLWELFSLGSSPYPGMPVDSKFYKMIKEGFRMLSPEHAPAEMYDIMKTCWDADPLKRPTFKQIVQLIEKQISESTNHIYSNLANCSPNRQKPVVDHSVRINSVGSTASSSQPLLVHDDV

With `Cn1ncc(Cl)c1-c1cc(C(=O)N[C@H](CN)Cc2cccc(F)c2)sc1Cl` [GSK2110183] the inhibition at 0.5 µM (DDR2(h)) was 1%, the inhibition at 10 µM (DDR2(h)) was 6% and the “time for blood glucose to return to normal levels” value ([1]; 100 mg/kg single oral dose) was at most 8 h. The blood glucose level ([1]; 100 mg/kg single oral dose, 2 h post dosing) was 211 mg/dL, the inhibition at 0.5 µM (Flt1(h)) was -35% and the inhibition at 10 µM (Flt1(h)) was -28%. It also gave an inhibition at 0.5 µM (Ron(h)) of 12%, an inhibition at 10 µM (Ron(h)) of 30% and an inhibition at 0.5 µM (CaMKIIγ(h)) of 39%. For the same molecule, the inhibition at 10 µM (CaMKIIγ(h)) was 89%, the inhibition at 0.5 µM (eEF-2K(h)) was -3% and the inhibition at 10 µM (eEF-2K(h)) was 13%. The inhibition at 0.5 µM (DAPK2(h)) was -1%, the inhibition at 10 µM (DAPK2(h)) was 37% and the “% Inhibition” value (CK1(y); 0.5 µM) was 3%. The “% Inhibition” value (CK1(y); 10 µM) was 54%, the inhibition at 0.5 µM (SGK3(h)) was 7% and the inhibition at 10 µM (SGK3(h)) was 76%. For the same molecule, the inhibition at 0.5 µM (CaMKI(h)) was 3%, the inhibition at 10 µM (CaMKI(h)) was 24% and the inhibition at 0.5 µM (IRAK4(h)) was -15%. For the same molecule, the inhibition at 10 µM (IRAK4(h)) was -5%, the inhibition at 0.5 µM (cKit(V654A)(h)) was -9% and the inhibition at 10 µM (cKit(V654A)(h)) was -9%. It also gave an inhibition at 0.5 µM (cSRC(h)) of -1%, an inhibition at 10 µM (cSRC(h)) of 22% and an inhibition at 0.5 µM (TrkB(h)) of 15%. It also gave an inhibition at 10 µM (TrkB(h)) of 74%, an inhibition at 0.5 µM (CDK1/cyclinB(h)) of -3% and an inhibition at 10 µM (CDK1/cyclinB(h)) of 7%.
`Cn1ncc(Cl)c1-c1cc(C(=O)N[C@H](CN)Cc2ccc(F)c(F)c2)oc1Cl` [GSK2141795] showed an inhibition at 0.5 µM (DDR2(h); 0.5 µM, read-out: % Inhibition) of 3%, an inhibition at 10 µM (DDR2(h); 10 µM, read-out: % Inhibition) of 12% and a blood glucose level ([1]; maximal tolerated dose of 30 mg/kg, daily) of 200 to 300 mg/dL. The “time for glucose to return to normal” value ([1]; single 30 mg/kg dose) was at most 8 h, the blood glucose level ([1]; single 30 mg/kg dose, 2 h post dosing) was 200 mg/dL and the inhibition at 0.5 µM (Flt1(h); 0.5 µM, read-out: % Inhibition) was -4%. The inhibition at 10 µM (Flt1(h); 10 µM, read-out: % Inhibition) was 21%, the inhibition at 0.5 µM (Ron(h); 0.5 µM, read-out: % Inhibition) was 5% and the inhibition at 10 µM (Ron(h); 10 µM, read-out: % Inhibition) was 73%. For the same molecule, the inhibition at 0.5 µM (CaMKIIγ(h); 0.5 µM, read-out: % Inhibition) was 48%, the inhibition at 10 µM (CaMKIIγ(h); 10 µM, read-out: % Inhibition) was 92% and the inhibition at 0.5 µM (eEF-2K(h); 0.5 µM, read-out: % Inhibition) was 4%. It also gave an inhibition at 10 µM (eEF-2K(h); 10 µM, read-out: % Inhibition) of 3%, an inhibition at 0.5 µM (DAPK2(h); 0.5 µM, read-out: % Inhibition) of -10% and an inhibition at 10 µM (DAPK2(h); 10 µM, read-out: % Inhibition) of 58%. For the same molecule, the “% Inhibition” value (CK1(y); 0.5 µM) was 35%, the “% Inhibition” value (CK1(y); 10 µM) was 93% and the inhibition at 0.5 µM (SGK3(h)) was 18%. For the same molecule, the inhibition at 10 µM (SGK3(h)) was 84%, the inhibition at 0.5 µM (CaMKI(h); 0.5 µM, read-out: % Inhibition) was -30% and the inhibition at 10 µM (CaMKI(h); 10 µM, read-out: % Inhibition) was 16%. The inhibition at 0.5 µM (IRAK4(h); 0.5 µM, read-out: % Inhibition) was -12%, the inhibition at 10 µM (IRAK4(h); 10 µM, read-out: % Inhibition) was 0% and the inhibition at 0.5 µM (cKit(V654A)(h); 0.5 µM, read-out: % Inhibition) was -2%. The inhibition at 10 µM (cKit(V654A)(h); 10 µM, read-out: % Inhibition) was -3%, the inhibition at 0.5 µM (cSRC(h); 0.5 µM, read-out: % Inhibition) was -6% and the inhibition at 10 µM (cSRC(h); 10 µM, read-out: % Inhibition) was 49%. For the same molecule, the inhibition at 0.5 µM (TrkB(h); 0.5 µM, read-out: % Inhibition) was 27%, the inhibition at 10 µM (TrkB(h); 10 µM, read-out: % Inhibition) was 85% and the inhibition at 0.5 µM (CDK1/cyclinB(h); 0.5 µM, read-out: % Inhibition) was -5%. For the same molecule, the inhibition at 10 µM (CDK1/cyclinB(h); 10 µM, read-out: % Inhibition) was 12%.
